The values that follow come from patent US20050033021A1, “Chimeric Gatiphal 15 variants and their use in the analysis and discovery of modulators of G-protein coupled receptors” (priority 2003, published 2005).

This test concerns the target T1, rat T1 R1/T1 R3 umami taste receptor (Rattus norvegicus, UniProt Q923K1+Q9Z0R8).
T1 construct: expressed in transfected cells; host or cells: HEK-293, transient transfection, pEAK10 expression vector
T1 sequence (Q9Z0R8 20-840): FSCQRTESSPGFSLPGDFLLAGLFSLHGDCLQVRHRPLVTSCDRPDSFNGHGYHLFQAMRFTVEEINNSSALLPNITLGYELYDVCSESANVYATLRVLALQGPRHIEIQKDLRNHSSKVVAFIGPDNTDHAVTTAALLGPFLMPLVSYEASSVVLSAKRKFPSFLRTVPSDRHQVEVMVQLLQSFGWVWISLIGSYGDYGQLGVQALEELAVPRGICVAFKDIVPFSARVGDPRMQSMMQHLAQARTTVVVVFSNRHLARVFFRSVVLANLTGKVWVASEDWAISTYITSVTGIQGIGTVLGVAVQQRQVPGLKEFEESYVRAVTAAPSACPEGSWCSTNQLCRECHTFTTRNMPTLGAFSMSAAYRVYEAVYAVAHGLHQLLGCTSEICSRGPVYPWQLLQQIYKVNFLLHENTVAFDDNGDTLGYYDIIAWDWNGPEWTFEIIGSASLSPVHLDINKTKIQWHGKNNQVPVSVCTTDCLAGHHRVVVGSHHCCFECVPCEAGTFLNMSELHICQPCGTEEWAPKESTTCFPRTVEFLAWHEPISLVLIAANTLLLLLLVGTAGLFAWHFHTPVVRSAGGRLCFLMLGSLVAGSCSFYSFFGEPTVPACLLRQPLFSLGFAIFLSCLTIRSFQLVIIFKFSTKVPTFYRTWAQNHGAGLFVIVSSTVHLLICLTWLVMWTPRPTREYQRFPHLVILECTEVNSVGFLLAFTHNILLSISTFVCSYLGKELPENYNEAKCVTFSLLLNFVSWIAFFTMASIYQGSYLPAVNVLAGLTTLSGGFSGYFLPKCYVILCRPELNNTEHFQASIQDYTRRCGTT
T1 sequence (Q923K1 21-858): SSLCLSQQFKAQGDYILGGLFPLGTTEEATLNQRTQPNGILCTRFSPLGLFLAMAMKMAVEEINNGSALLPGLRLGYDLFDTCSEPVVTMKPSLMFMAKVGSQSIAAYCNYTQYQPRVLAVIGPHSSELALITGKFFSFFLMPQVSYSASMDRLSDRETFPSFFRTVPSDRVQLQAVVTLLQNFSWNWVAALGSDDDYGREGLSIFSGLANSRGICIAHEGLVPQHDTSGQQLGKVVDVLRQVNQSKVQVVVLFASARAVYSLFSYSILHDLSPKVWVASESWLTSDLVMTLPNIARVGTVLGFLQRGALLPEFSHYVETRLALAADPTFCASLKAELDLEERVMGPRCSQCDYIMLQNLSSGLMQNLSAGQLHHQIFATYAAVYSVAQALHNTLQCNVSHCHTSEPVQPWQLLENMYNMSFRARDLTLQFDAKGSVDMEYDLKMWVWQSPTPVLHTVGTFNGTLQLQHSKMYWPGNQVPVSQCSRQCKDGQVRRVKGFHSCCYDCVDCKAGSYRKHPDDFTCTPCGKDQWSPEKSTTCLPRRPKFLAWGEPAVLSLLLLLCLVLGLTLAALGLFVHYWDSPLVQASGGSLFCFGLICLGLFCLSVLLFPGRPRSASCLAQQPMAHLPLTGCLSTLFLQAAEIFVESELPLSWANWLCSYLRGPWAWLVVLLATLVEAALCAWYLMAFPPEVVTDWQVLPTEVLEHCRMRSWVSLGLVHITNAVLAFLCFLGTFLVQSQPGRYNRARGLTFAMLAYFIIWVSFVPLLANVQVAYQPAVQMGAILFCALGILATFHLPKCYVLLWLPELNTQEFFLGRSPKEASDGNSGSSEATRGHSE
The test is described as follows: Calcium imaging of HEK-293 cells transiently transfected with rat T1R1, T1R3 and Ga15 or Ga15/i1. It counts as cell-based. The following applies: HEK-293 with rat T1R1, T1R3 and Ga15/i1; in the presence of 2.5 mM IMP. An excerpt:
Rat T1 R2 and T1 R3 expression constructs were generated using the pEAK10 expression vector (Edge Biosystems). (Rat T1 R1, T1 R2, and T1 R3 nucleic acid sequences are described in U.S. Provisional Application No. 60/339,472, incorporated by reference in its entirety herein). […] Calcium mobilization was monitored on an Axiovert S100 microscope equipped with an inverted 10X/0.5 LWID piano fluor objective (Zeiss) and a cooled CCID camera (Princeton Instruments). Fluorescence images were acquired at 480 nrn excitation and 535 nm emission, and analyzed with Imaging Workbench 4.0 software (Axon Instruments). T1 R receptor activity was quantitated by counting the number of responding cells 30 seconds after stimulus addition. […]

`N[C@@H](CC(=O)O)C(=O)O` [L-aspartate]: the “cell response (intracellular calcium) to umami taste stimuli” value was “responded”.

For `N[C@@H](CCC(=O)O)C(=O)O` [L-glutamate], the “cell response (intracellular calcium) to umami taste stimuli” value is “responded”.
